Source: patent US5624902A, “Peptide inhibitors of calmodulin” (Torrey Pines Institute for Molecular Studies, priority 1995, dated 1997)
Square brackets hold non-standard residues; d marks the D form. Peptide text beside a SMILES is read from it.

Target: calmodulin (Homo sapiens, UniProt P0DP23)
Experiment: calcium-dependent phosphodiesterase assay (inhibition of calmodulin activity)
Type: biochemical
Settings: for IC50: concentration inhibiting 50% of calmodulin activity, assayed at 75 μM, 50 μM and 12.5 μM; for inhibition at 50 µM: inhibition of calmodulin activation of phosphodiesterase at 50 μM peptide, PDE without calmodulin = 100%, Calmo = 0%

IC50 [µM] | inhibition at 50 µM [%] | SMILES
> 50 | 23.7 | CC[C@@H](C)[C@@H](NC(=O)[C@@H](Cc1c[nH]c2ccccc12)NC(=O)[C@@H](CC(C)C)NC(C)=O)C(=O)N[C@@H](C(=O)N[C@H](CC(C)C)C(=O)N[C@H](Cc1c[nH]c2ccccc12)C(N)=O)[C@H](C)CC [Ac-(D)Leu-(D)Trp-(D)Ile-(D)Ile-(D)Leu-(D)Trp-NH2] (Ac-[dL][dW][dI][dI][dL][dW]-NH2)
 | 36.8 | CSCC[C@@H](NC(=O)[C@@H](Cc1c[nH]cn1)NC(=O)[C@@H](Cc1ccccc1)NC(=O)[C@@H](Cc1ccccc1)NC(C)=O)C(=O)N[C@H](CCSC)C(=O)N1CCC[C@@H]1C(N)=O [Ctr 1, Ac-(D)Phe-(D)Phe-(D)His-(D)-Met-(D)Met-(D)Pro-NH2, reference compound] (Ac-[dF][dF][dH][dM][dM][dP]-NH2)
 | 35.5 | CSCC[C@@H](NC(=O)[C@@H](CCSC)NC(=O)[C@@H](Cc1ccccc1)NC(=O)[C@@H](Cc1c[nH]cn1)NC(=O)[C@@H](CC(=O)O)NC(C)=O)C(=O)N[C@H](C)C(N)=O [Ctr 2, Ac-(D)Asp-(D)His-(D)Phe-(D)Met-(D)Met-(D)-Ala-NH2, reference compound] (Ac-[dD][dH][dF][dM][dM][dA]-NH2)
 | 107 | CC[C@H](C)[C@H](NC(=O)[C@H](Cc1ccccc1)NC(C)=O)C(=O)N[C@H](C(=O)N[C@@H](Cc1c[nH]c2ccccc12)C(=O)N[C@@H](Cc1ccccc1)C(=O)N[C@@H](CCC(=O)O)C(N)=O)[C@@H](C)CC [Ctr 3, Ac-Phe-Ile-Ile-Trp-Phe-Glu-NH2, reference compound] (Ac-FIIWFE-NH2)
< 75 |  | NCCCCNS(=O)(=O)c1ccc2c(Cl)cccc2c1 [Peptide W13, N-(4-aminobutyl)-5-chloro-2-naphtalenesulfonamide, reference compound]

Further lines, the compound ahead of its results:

SMILES | IC50 [µM] | inhibition at 50 µM [%]
CC[C@@H](C)[C@@H](NC(=O)[C@@H](Cc1c[nH]c2ccccc12)NC(=O)[C@@H](CC(C)C)NC(C)=O)C(=O)N[C@H](Cc1c[nH]cn1)C(=O)N[C@H](CC(C)C)C(=O)N[C@H](CCCNC(=N)N)C(N)=O [Ac-(D)Leu-(D)Trp-(D)Ile-(D)His-(D)Leu-(D)-Arg-NH2] (Ac-[dL][dW][dI][dH][dL][dR]-NH2) | 12 | 103
CC[C@@H](C)[C@@H](NC(=O)[C@@H](Cc1c[nH]c2ccccc12)NC(=O)[C@@H](CC(C)C)NC(C)=O)C(=O)N[C@H](Cc1c[nH]cn1)C(=O)N[C@H](CC(C)C)C(=O)N[C@H](Cc1c[nH]c2ccccc12)C(N)=O [Ac-(D)Leu-(D)Trp-(D)Ile-(D)His-(D)Leu-(D)Trp-NH2] (Ac-[dL][dW][dI][dH][dL][dW]-NH2) |  | 103
CC[C@@H](C)[C@@H](NC(=O)[C@@H](Cc1c[nH]c2ccccc12)NC(=O)[C@@H](CC(C)C)NC(C)=O)C(=O)N[C@@H](C(=O)N[C@H](Cc1c[nH]cn1)C(=O)N[C@H](CCCNC(=N)N)C(N)=O)[C@H](C)CC [Ac-(D)Leu-(D)Trp-(D)Ile-(D)Ile-(D)His-(D)Arg-NH2] (Ac-[dL][dW][dI][dI][dH][dR]-NH2) | 43 | 89.5
CC[C@@H](C)[C@@H](NC(=O)[C@@H](Cc1c[nH]c2ccccc12)NC(=O)[C@@H](CC(C)C)NC(C)=O)C(=O)N[C@@H](C(=O)N[C@H](Cc1c[nH]cn1)C(=O)N[C@H](Cc1c[nH]c2ccccc12)C(N)=O)[C@H](C)CC [Ac-(D)Leu-(D)Trp-(D)Ile-(D)Ile-(D)His-(D)Trp-NH2] (Ac-[dL][dW][dI][dI][dH][dW]-NH2) | ≤ 9 | 92.1
CC[C@@H](C)[C@@H](NC(=O)[C@@H](Cc1c[nH]c2ccccc12)NC(=O)[C@@H](CC(C)C)NC(C)=O)C(=O)N[C@@H](C(=O)N[C@H](CC(C)C)C(=O)N[C@H](CCCNC(=N)N)C(N)=O)[C@H](C)CC [Ac-(D)Leu-(D)Trp-(D)Ile-(D)Ile-(D)Leu-(D)Arg-NH2] (Ac-[dL][dW][dI][dI][dL][dR]-NH2) | 10 | 85.5
